Assay results from patent publication US11802120B2, “Fused cyclic urea derivatives as CRHR2 antagonist” (RaQualia Pharma Inc., priority 2018, dated 2023).

Target: T1, human CRHR2-alpha (Homo sapiens, UniProt Q13324)
T1 sequence (Q13324 1-411): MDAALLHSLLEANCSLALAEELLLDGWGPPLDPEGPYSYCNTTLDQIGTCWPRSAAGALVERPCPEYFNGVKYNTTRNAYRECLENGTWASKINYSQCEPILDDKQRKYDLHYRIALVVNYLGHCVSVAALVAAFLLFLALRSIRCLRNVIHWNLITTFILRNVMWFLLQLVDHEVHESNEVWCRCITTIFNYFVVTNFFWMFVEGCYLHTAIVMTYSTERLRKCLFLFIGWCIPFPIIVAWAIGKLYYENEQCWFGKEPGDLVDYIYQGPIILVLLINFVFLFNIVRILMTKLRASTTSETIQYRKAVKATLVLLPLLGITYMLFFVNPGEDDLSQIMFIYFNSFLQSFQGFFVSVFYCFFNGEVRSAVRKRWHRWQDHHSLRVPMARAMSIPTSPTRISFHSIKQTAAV
Assay: cAMP functional assay for human CRHR2 (LANCE Ultra cAMP, TR-FRET)
Assay type: cell-based
Conditions: CHO-K1 cells expressing human CRHR2-alpha, agonist human urocortin2 at EC80, cAMP; read-out: IC50 against CRHR2
Outline: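 CHO-K1 stable lines; 4,000 cells/well; compound 30 min, 25° C; EC80 agonist (human urocortin2 → CRHR2, CRF → CRHR1) 30 min, 25° C; buffer HBSS/0.1% BSA/0.5 mM IBMX/5 mM Hepes pH 7.4; Eu-cAMP tracer + ULight antibody 60 min; TR-FRET read; IC50 from % inhibition curves.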

Compound	IC50 [nM]
O=C(N[C@H]1CC[C@H](Cn2c(=O)n(-c3ccc4nccnc4c3)c3ccccc32)CC1)c1cc(Cl)cnc1C(F)F [Example 495, 5-chloro-2-(difluoromethyl)-N-((1r,4r)-4-((2-oxo-3-(quinoxalin-6-yl)-2,3-dihydro-1H-benzo[d]imidazol-1-yl)methyl)cyclo-hexyl)nicotinamide]	< 300
O=C(N[C@H]1CC[C@H](Cn2c(=O)n(-c3ccncc3Cl)c3ncccc32)CC1)c1cc(Cl)cnc1C(F)F [Example 496, 5-chloro-N-((1r,4r)-4-((3-(3-chloropyridin-4-yl)-2-oxo-2,3-dihydro-1H-imidazo[4,5-b]pyridin-1-yl)methyl)cyclohexyl)-2-(difluoromethyl)nicotinamide]	< 300
Cc1ncc(Cl)cc1C(=O)N[C@H]1CC[C@H](Cn2c(=O)n(-c3ccc4c(c3)cc(CO)n4C)c3ccccc32)CC1 [Example 497, 5-chloro-N-((1r,4r)-4-((3-(2-(hydroxymethyl)-1-methyl-1H-indol-5-yl)-2-oxo-2,3-dihydro-1H-benzo[d]imidazol-1-yl)methyl)cyclohexyl)-2-methylnicotinamide]	< 300
O=C(N[C@H]1CC[C@H](Cn2c(=O)n(-c3ccc(N4CCCC4=O)nc3)c3ccccc32)CC1)c1cc(Cl)cnc1C(F)F [Example 498, 5-chloro-2-(difluoromethyl)-N-((1r,4r)-4-((2-oxo-3-(6-(2-oxopyrrolidin-1-yl)pyridin-3-yl)-2,3-dihydro-1H-benzo[d]imidazol-1-yl)methyl)cyclohexyl)nicotinamide]	< 300
N#Cc1ccccc1-n1c(=O)n(C[C@H]2CC[C@H](NC(=O)c3cc(Cl)cnc3C(F)F)CC2)c2ccccc21 [Example 499, 5-chloro-N-((1r,4r)-4-((3-(2-cyanophenyl)-2-oxo-2,3-dihydro-1H-benzo[d]imidazol-1-yl)methyl)cyclo-hexyl)-2-(difluoromethyl) nicotinamide]	< 300
CNC(=O)COc1ccc(-n2c(=O)n(C[C@H]3CC[C@H](NC(=O)c4cc(Cl)cnc4C(F)F)CC3)c3ccccc32)cn1 [Example 500, 5-chloro-2-(difluoromethyl)-N-((1r,4r)-4-((3-(6-(2-(methylamino)-2-oxoethoxy)pyridin-3-yl)-2-oxo-2,3-dihydro-1H-benzo[d]imidazol-1-yl)methyl)cyclohexyl)nicotinamide]	< 300

The remaining lines, values ahead:

IC50 [nM]	Compound
< 300	Cc1ncc(Cl)cc1C(=O)N[C@H]1CC[C@H](Cn2c(=O)n(-c3ccc(-c4cnco4)cn3)c3ccccc32)CC1 [Example 489, 5-chloro-2-methyl-N-((1r,4r)-4-((3-(5-(oxazol-5-yl)pyridin-2-yl)-2-oxo-2,3-dihydro-1H-benzo[d]imidazol-1-yl)methyl)cyclohexyl)nicotinamide]
< 300	CNC(=O)c1ccc(-n2c(=O)n(C[C@H]3CC[C@H](NC(=O)c4cc(C(F)(F)F)ccc4Cl)CC3)c3ccccc32)cn1 [Example 490, 5-(3-(((1r,4r)-4-(2-chloro-5-(trifluoromethyl)benza-mido)cyclohexyl)methyl)-2-oxo-2,3-dihydro-1H-benzo[d]imidazol-1-yl)-N-methylpicolinamide]
< 300	CNC(=O)c1ccc(-n2c(=O)n(C[C@H]3CC[C@H](NC(=O)c4cc(C(F)(F)F)cnc4C)CC3)c3ccccc32)cn1 [Example 491, N-methyl-5-(3-(((1r,4r)-4-(2-methyl-5-(trifluoromethyl)nicotinamido)cyclohexyl)methyl)-2-oxo-2,3-dihydro-1H-benzo[d]imidazol-1-yl) picolinamide]
< 300	CNC(=O)c1ccc(-n2c(=O)n(C[C@H]3CC[C@H](NC(=O)c4cc(C)ccc4C(F)(F)F)CC3)c3ccccc32)cn1 [Example 492, N-methyl-5-(3-(((1r,4r)-4-(5-methyl-2-(trifluoro-methyl)benzamido)cyclo-hexyl)methyl)-2-oxo-2,3-dihydro-1H-benzo[d]imidazol-1-yl)picolinamide]
